Experimental data: patent US20080176936A1, “Classes of Compounds that Interact with Integrins” (priority 2005, published 2008)

What was measured:
αVβ3 integrin = molecular target: T1, αVβ3 integrin (Homo sapiens, UniProt P05106+P06756); experiment: ELISA: inhibition of binding of αVβ3 integrin (source WM-115 cell line) to coated extracellular matrix protein; conditions: WM-115 cell line as integrin source
T1 construct: the cell line WM-115 was used as a source of αVβ3 integrin; endogenous in cells; host or cells: WM-115 cell line
Outline: (§1)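 Wells were coated with fibrinogen or vitronectin (10 µg/well), and integrin binding was measured by ELISA. αIIbβ3 came from human platelet membranes and αVβ3 from WM-115 cells, each preincubated with compound. Bound integrin was detected with a rabbit anti-β3 antibody, an HRP secondary and a colorimetric readout.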

αllbβ3 integrin = molecular target: T2, αllbβ3 integrin (Homo sapiens, UniProt P05106+P08514); experiment: ELISA: inhibition of binding of αllbβ3 integrin membrane preparation to coated extracellular matrix protein; conditions: human platelet membrane preparation
T2 construct: Human platelet membrane preparations were used as a source of αllbβ3 integrin; from tissue; host or cells: human platelets (membrane preparation)
Outline: as §1

T1 sequence (P06756 31-889 limits assumed): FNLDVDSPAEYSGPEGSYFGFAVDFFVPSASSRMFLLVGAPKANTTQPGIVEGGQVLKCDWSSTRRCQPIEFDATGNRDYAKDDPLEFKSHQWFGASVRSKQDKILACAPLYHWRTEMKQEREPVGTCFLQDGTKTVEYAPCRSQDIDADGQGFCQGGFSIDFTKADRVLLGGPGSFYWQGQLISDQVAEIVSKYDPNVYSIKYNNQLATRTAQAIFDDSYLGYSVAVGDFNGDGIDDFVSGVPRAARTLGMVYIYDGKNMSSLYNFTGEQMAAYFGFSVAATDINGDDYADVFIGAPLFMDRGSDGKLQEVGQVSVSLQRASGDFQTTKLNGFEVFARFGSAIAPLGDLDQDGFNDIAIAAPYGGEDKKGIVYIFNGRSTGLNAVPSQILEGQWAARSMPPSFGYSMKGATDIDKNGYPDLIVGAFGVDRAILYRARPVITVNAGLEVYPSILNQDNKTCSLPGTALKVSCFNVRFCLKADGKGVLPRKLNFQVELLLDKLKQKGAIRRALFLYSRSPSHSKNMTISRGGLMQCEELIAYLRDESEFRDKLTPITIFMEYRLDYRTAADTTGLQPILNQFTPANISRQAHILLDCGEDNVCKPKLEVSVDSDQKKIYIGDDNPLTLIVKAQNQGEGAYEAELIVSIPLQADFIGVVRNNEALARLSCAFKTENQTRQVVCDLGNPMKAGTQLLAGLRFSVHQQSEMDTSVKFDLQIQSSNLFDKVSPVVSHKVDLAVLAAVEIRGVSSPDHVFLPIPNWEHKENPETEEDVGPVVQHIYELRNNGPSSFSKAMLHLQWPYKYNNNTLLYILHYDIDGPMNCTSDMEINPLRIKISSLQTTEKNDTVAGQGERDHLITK
T1 sequence (P06756 891-1048 partner limits assumed): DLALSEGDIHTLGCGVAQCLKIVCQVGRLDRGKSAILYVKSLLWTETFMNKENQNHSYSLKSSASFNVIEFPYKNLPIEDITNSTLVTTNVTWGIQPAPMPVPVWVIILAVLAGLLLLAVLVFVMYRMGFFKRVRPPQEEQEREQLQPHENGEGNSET
T1 sequence (P05106 27-788): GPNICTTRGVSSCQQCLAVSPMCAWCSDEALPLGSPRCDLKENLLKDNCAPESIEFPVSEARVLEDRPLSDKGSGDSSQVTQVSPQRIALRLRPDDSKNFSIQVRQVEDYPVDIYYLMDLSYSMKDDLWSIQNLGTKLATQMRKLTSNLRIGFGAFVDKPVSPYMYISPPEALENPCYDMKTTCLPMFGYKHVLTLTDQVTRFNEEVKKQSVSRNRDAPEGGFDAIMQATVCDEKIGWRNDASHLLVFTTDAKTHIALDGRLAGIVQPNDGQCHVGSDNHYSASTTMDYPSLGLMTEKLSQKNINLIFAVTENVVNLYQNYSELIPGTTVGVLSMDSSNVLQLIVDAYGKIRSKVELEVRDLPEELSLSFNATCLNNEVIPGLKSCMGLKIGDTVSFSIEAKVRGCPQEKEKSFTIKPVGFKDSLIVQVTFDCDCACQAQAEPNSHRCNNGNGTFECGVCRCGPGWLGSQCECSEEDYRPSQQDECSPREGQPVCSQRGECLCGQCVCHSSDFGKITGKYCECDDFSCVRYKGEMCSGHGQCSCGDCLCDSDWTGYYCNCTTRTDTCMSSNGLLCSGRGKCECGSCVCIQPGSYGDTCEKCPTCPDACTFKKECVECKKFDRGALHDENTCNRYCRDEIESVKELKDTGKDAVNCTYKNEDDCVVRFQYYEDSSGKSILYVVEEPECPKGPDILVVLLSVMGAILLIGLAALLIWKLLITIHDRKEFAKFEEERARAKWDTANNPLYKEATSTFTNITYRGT
T2 sequence (P08514 32-887 limits assumed): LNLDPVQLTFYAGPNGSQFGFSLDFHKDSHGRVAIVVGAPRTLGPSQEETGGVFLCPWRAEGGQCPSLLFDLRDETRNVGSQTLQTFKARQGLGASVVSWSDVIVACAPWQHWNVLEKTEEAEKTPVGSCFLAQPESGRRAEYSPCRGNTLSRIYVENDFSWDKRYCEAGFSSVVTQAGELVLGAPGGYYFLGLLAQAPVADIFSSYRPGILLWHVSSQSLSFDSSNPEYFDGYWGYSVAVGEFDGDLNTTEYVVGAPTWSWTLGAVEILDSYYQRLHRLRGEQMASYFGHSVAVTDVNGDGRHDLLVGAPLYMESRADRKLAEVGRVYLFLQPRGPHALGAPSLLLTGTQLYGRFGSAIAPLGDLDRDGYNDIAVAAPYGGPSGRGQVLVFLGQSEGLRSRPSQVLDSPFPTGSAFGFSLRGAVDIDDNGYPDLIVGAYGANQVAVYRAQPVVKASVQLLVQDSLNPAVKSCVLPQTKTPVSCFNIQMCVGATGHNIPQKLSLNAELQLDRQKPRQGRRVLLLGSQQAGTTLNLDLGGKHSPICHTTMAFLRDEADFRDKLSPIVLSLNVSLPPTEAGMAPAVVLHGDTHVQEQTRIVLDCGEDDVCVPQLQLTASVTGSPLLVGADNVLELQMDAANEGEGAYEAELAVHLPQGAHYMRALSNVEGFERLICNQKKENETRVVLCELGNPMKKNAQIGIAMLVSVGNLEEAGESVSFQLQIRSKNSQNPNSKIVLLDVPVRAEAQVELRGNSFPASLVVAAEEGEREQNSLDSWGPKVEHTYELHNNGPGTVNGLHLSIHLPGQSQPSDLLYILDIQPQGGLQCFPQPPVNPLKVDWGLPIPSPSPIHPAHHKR
T2 sequence (P08514 891-1039 partner limits assumed): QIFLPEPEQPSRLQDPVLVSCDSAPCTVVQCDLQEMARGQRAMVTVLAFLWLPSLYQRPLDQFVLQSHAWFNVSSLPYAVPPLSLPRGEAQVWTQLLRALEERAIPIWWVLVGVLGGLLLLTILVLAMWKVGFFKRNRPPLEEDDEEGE
T2 sequence (P05106 27-788): as the sequence (P05106 27-788) above

SMILES	INHIBITION 250 uM RECEPTOR aVb3 SUBSTRATE FIBRINOGEN (αVβ3 integrin)	INHIBITION @ 250 uM RECEPTOR allBb3 SUBSTRATE FIBRINOGEN (αllbβ3 integrin)	INHIBITION 250 uM RECEPTOR allBb3 SUBSTRATE VITRONECTIN (αllbβ3 integrin)
CCOCC1OC(OCc2ccccc2)C(NC(=O)c2cccc(N)c2)C(OCc2ccc(C(=O)O)cc2)C1O (single isomer, unassigned) [Compound 100]	− (0% to 35% inhibition at 250 micromolar)	− (0% to 35% inhibition at 250 micromolar)	+++ (81% to 100% inhibition at 250 micromolar)
Nc1cccc(C(=O)NC2C(OCc3ccccc3)OC(CO)C(O)C2OCc2ccc(C(=O)O)cc2)c1 (single isomer, unassigned) [Compound 101]	+ (36% to 60% inhibition at 250 micromolar)	− (0% to 35% inhibition at 250 micromolar)	++ (61% to 80% inhibition at 250 micromolar)
Nc1cccc(C(=O)NC2C(OCc3ccccc3)OC(CO)C(O)C2OCc2ccc(C(=O)O)cc2)c1 (single isomer, unassigned) [Compound 102]	+++ (81% to 100% inhibition at 250 micromolar)	− (0% to 35% inhibition at 250 micromolar)	+++ (81% to 100% inhibition at 250 micromolar)
CCC(=O)NC1C(OCc2ccccc2)OC(COCc2cccc(N)c2)C(O)C1OCc1ccc(C(=O)O)cc1 (single isomer, unassigned) [Compound 103]	+++ (81% to 100% inhibition at 250 micromolar)	++ (61% to 80% inhibition at 250 micromolar)	+++ (81% to 100% inhibition at 250 micromolar)
CCC(=O)NC1C(OCc2ccccc2)OC(COCc2cccc(N)c2)C(O)C1OCc1ccc(C(=O)O)cc1 (single isomer, unassigned) [Compound 104]	− (0% to 35% inhibition at 250 micromolar)	− (0% to 35% inhibition at 250 micromolar)	+++ (81% to 100% inhibition at 250 micromolar)
COCC1OC(OCc2ccccc2)C(NC(=O)c2ccc(C(=O)O)cc2)C(OCc2cccc(N)c2)C1O (single isomer, unassigned) [Compound 105]	− (0% to 35% inhibition at 250 micromolar)	+++ (81% to 100% inhibition at 250 micromolar)	++ (61% to 80% inhibition at 250 micromolar)
COCC1OC(OCc2ccccc2)C(NC(=O)c2ccc(C(=O)O)cc2)C(OCc2cccc(N)c2)C1O (single isomer, unassigned) [Compound 106]	− (0% to 35% inhibition at 250 micromolar)	+ (36% to 60% inhibition at 250 micromolar)	+++ (81% to 100% inhibition at 250 micromolar)
CCOCC1OC(OCc2ccccc2)C(NC(=O)c2ccc(C(=O)O)cc2)C(OCc2cccc(N)c2)C1O (single isomer, unassigned) [Compound 107]	− (0% to 35% inhibition at 250 micromolar)	− (0% to 35% inhibition at 250 micromolar)	+++ (81% to 100% inhibition at 250 micromolar)
CCOCC1OC(OCc2ccccc2)C(NC(=O)c2ccc(C(=O)O)cc2)C(OCc2cccc(N)c2)C1O (single isomer, unassigned) [Compound 108]	− (0% to 35% inhibition at 250 micromolar)	− (0% to 35% inhibition at 250 micromolar)	+++ (81% to 100% inhibition at 250 micromolar)
Nc1cccc(COC2C(O)C(CO)OC(OCc3ccccc3)C2NC(=O)c2ccc(C(=O)O)cc2)c1 (single isomer, unassigned) [Compound 109]	− (0% to 35% inhibition at 250 micromolar)	− (0% to 35% inhibition at 250 micromolar)	+++ (81% to 100% inhibition at 250 micromolar)
CCC(=O)NC1C(OCc2ccccc2)OC(COCC(=O)O)C(O)C1OCc1cccc(N)c1 (single isomer, unassigned) [Compound 110]	− (0% to 35% inhibition at 250 micromolar)	− (0% to 35% inhibition at 250 micromolar)	+++ (81% to 100% inhibition at 250 micromolar)
CCC(=O)NC1C(OCc2ccccc2)OC(COCc2ccc(C(=O)O)cc2)C(O)C1OCc1cccc(N)c1 (single isomer, unassigned) [Compound 111]	− (0% to 35% inhibition at 250 micromolar)	− (0% to 35% inhibition at 250 micromolar)	+++ (81% to 100% inhibition at 250 micromolar)
CCC(=O)NC1C(OCc2ccccc2)OC(COCc2ccc(C(=O)O)cc2)C(O)C1OCc1cccc(N)c1 (single isomer, unassigned) [Compound 112]	+++ (81% to 100% inhibition at 250 micromolar)	− (0% to 35% inhibition at 250 micromolar)	+++ (81% to 100% inhibition at 250 micromolar)
CC(=O)NC1C(OCCNC(=N)N)OC(COCC(=O)O)C(O)C1OCc1ccccc1 (single isomer, unassigned) [Compound 113]	+++ (81% to 100% inhibition at 250 micromolar)	+ (36% to 60% inhibition at 250 micromolar)	+++ (81% to 100% inhibition at 250 micromolar)
COCC1OC(OCCNC(=N)N)C(NC(=O)c2ccccc2)C(OCc2ccc(C(=O)O)cc2)C1O (single isomer, unassigned) [Compound 114]	− (0% to 35% inhibition at 250 micromolar)	− (0% to 35% inhibition at 250 micromolar)	++ (61% to 80% inhibition at 250 micromolar)
COCC1OC(OCCNC(=N)N)C(NC(=O)c2ccccc2)C(OCc2ccc(C(=O)O)cc2)C1O (single isomer, unassigned) [Compound 115]	− (0% to 35% inhibition at 250 micromolar)	− (0% to 35% inhibition at 250 micromolar)	− (0% to 35% inhibition at 250 micromolar)
CCOC1OC(COCC(=O)O)C(O)C(OCc2ccccc2)C1NC(=O)CN (single isomer, unassigned) [Compound 116]	− (0% to 35% inhibition at 250 micromolar)	− (0% to 35% inhibition at 250 micromolar)	− (0% to 35% inhibition at 250 micromolar)
CCOC1OC(COCC(=O)O)C(O)C(OCc2ccccc2)C1NC(=O)CN (single isomer, unassigned) [Compound 117]	− (0% to 35% inhibition at 250 micromolar)	+ (36% to 60% inhibition at 250 micromolar)	+++ (81% to 100% inhibition at 250 micromolar)
CCOC1OC(COCC(=O)O)C(O)C(OCc2ccccc2)C1NC(=O)CNC(=N)N (single isomer, unassigned) [Compound 118]	− (0% to 35% inhibition at 250 micromolar)	− (0% to 35% inhibition at 250 micromolar)	+++ (81% to 100% inhibition at 250 micromolar)
CCOC1OC(COCC(=O)O)C(O)C(OCc2ccccc2)C1NC(=O)CNC(=N)N (single isomer, unassigned) [Compound 119]	− (0% to 35% inhibition at 250 micromolar)	− (0% to 35% inhibition at 250 micromolar)	+++ (81% to 100% inhibition at 250 micromolar)
CCOC1OC(COCC(=O)O)C(O)C(OCc2ccccc2)C1NC(=O)CCN (single isomer, unassigned) [Compound 120]	− (0% to 35% inhibition at 250 micromolar)	+ (36% to 60% inhibition at 250 micromolar)	+ (36% to 60% inhibition at 250 micromolar)
CCOC1OC(COCC(=O)O)C(O)C(OCc2ccccc2)C1NC(=O)CCNC(=N)N (single isomer, unassigned) [Compound 122]	− (0% to 35% inhibition at 250 micromolar)	++ (61% to 80% inhibition at 250 micromolar)	++ (61% to 80% inhibition at 250 micromolar)
COC1OC(COCC(=O)O)C(O)C(OCc2ccccc2)C1NC(=O)CCCN (single isomer, unassigned) [Compound 123]	− (0% to 35% inhibition at 250 micromolar)	+ (36% to 60% inhibition at 250 micromolar)	+++ (81% to 100% inhibition at 250 micromolar)
COC1OC(COCC(=O)O)C(O)C(OCc2ccccc2)C1NC(=O)CCCN (single isomer, unassigned) [Compound 124]	+ (36% to 60% inhibition at 250 micromolar)	++ (61% to 80% inhibition at 250 micromolar)	+++ (81% to 100% inhibition at 250 micromolar)
